Assay results: patent publication US11013235B2 (priority 2015, dated 2021)
Where two headings read alike, the source gives them in different places.

Key:
Assay type in all cases: in vivo
[1] = tested on: Candidatus 'Liberibacter asiaticus'; conditions: spraying every 15 days, 12 months after treatment, Citrus sinensis with HLB
Phytophthora parasitica = assay: Control of Phytophthora parasitica disease in tobacco (Pp-Nt); conditions: 1 μM spraying every 24 hours for one week, water control 91
Rhizoctonia solani [2] = assay: Control of Rhizoctonia solani disease in tobacco (Rs-Nt); conditions: 1 μM spraying every 24 hours for one week, water control 87
Nocardia sp = assay: Control of Nocardia sp disease in tobacco (N-Nt); conditions: 1 μM spraying every 24 hours for one week, water control 58
Procedure, shortened: (§1)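 Fifty pre-inoculated plants per treatment received 1 μM compound sprays daily for a week; water-sprayed plants served as controls. Disease scored as plant mortality (Nocardia), share of leaves with symptoms (A. solani) or lesion diameter (B. cinerea).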

Rhizoctonia solani [3] = assay: Control of Rhizoctonia solani disease in tomato (Rs-SI); conditions: 1 μM spraying every 24 hours for one week, water control 96
Alternaria solani = assay: Control of Alternaria solani disease in tomato (As-SI); conditions: 1 μM spraying every 24 hours for one week, water control 68
Procedure, shortened: as §1

Botrytis cinerea [4] = assay: Control of Botrytis cinerea disease in Arabidopsis (Bc-At); conditions: 1 μM spraying every 24 hours for one week, water control 8.7
Procedure, shortened: as §1

Botrytis cinerea [5] = assay: Control of Botrytis cinerea disease in tobacco (Bc-Nt); conditions: 1 μM spraying every 24 hours for one week, water control 6.7
Procedure, shortened: as §1

Botrytis cinerea [6] = assay: Control of Botrytis cinerea disease in tomato (Bc-SI); conditions: 1 μM spraying every 24 hours for one week, water control 7.4
Procedure, shortened: as §1

Radopholus similis = assay: Nematode control, nodules per plant: Radopholus similis; conditions: 1 μM foliar application every 5 days, evaluation 35 days after, control 45
Procedure, shortened: (§2)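 Read-out: nodule count per plant at final evaluation 35 days after start. Foliar spray of 1 μM compound (ethanol stock diluted in water) repeated every 5 days, ten plants per treatment.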

Meloidogyne incognita = assay: Nematode control, nodules per plant: Meloidogyne incognita; conditions: 1 μM foliar application every 5 days, evaluation 35 days after, control 34
Procedure, shortened: as §2

Pratylenchus coffeae = assay: Nematode control, nodules per plant: Pratylenchus coffeae; conditions: 1 μM foliar application every 5 days, evaluation 35 days after, control 42
Procedure, shortened: as §2

SMILES	Titers of the bacterium ([1]; 0.001 μM) [copies per reaction]	Titers of the bacterium ([1]; 0.01 μM) [copies per reaction]	Titers of the bacterium ([1]; 1 μM) [copies per reaction]	Titers of the bacterium ([1]; 5 μM) [copies per reaction]	Titers of the bacterium ([1]; 10 μM) [copies per reaction]	Pp-Nt: percentage of mortality (Phytophthora parasitica) [%]	Rs-Nt: percentage of mortality (Rhizoctonia solani [2]) [%]	N-Nt: percentage of mortality (Nocardia sp) [%]	Rs-SI: percentage of mortality (Rhizoctonia solani [3]) [%]	As-SI: percentage of leaves with the disease symptoms (Alternaria solani) [%]	Bc-At: mean of the diameter of the lesion (Botrytis cinerea [4]) [mm]	Bc-Nt: mean of the diameter of the lesion (Botrytis cinerea [5]) [mm]	Bc-SI: mean of the diameter of the lesion (Botrytis cinerea [6]) [mm]	Rs: number of nodules per plant (Radopholus similis)	Mi: number of nodules per plant (Meloidogyne incognita)	Pc: number of nodules per plant (Pratylenchus coffeae)
CC(O)C(O)CN1CCC(Oc2ccc(C(=O)N3CCCC3)cc2)CC1 (stereo not shown) [IVJ, 1-(4-{4-[(pyrrolidin-1-yl)carbonyl]phenoxy}piperidin-1-yl)butane-2,3-diol]	435	7	3	45	9547	1	2	1	3	1	1.1	2.0	1.6	16	2	18
O=C(c1ccc(OC2CCN(CC(O)CO)CC2)cc1)N1CCC(n2cccc2)C1 (stereo not shown) [IVK, 3-[4-(4-{[3-(1H-pyrrol-1-yl)pyrrolidin-1-yl]carbonyl}phenoxy)piperidin-1-yl]propane-1,2-diol]	578	5	4	78	8542	1	2	1	3	1	0.5	0.9	0.8	14	2	14
CC(O)C(O)CN1CCC(Oc2ccc(C(=O)N3CCC(n4cccc4)C3)cc2)CC1 (stereo not shown) [IVL, 1-[4-(4-{[3-(1H-pyrrol-1-yl)pyrrolidin-1-yl]carbonyl}phenoxy)piperidin-1-yl]butane-2,3-diol]	635	1	7	65	9853	2	3	1	2	2	1.5	1.5	2.5	2	3	12
CNC(=O)c1ccc2c(c1)NC(CC(=O)NC(CO)CO)CO2 (stereo not shown) [VA, 3-{[(1,3-dihydroxypropan-2-yl)carbamoyl]methyl}-N-methyl-3,4-dihydro-2H-1,4-benzoxazine-6-carboxamide]	524	1	5	54	5478	1	4	2	2	3	2.4	1.5	0.8	1	4	2
CNC(=O)c1ccc2c(c1)N(C)C(CC(=O)NC(CO)CO)CO2 (stereo not shown) [VB, 3-{[(1,3-dihydroxypropan-2-yl)carbamoyl]methyl}-N,4-dimethyl-3,4-dihydro-2H-1,4-benzoxazine-6-carboxamide]	598	9	2	98	9854	0	0	1	2	8	0.7	0.9	1.2	0	0	1
O=C(CC1COc2ccc(C(=O)Nc3ccccc3)cc2N1)NC(CO)CO (stereo not shown) [VC, 3-{[(1,3-dihydroxypropan-2-yl)carbamoyl]methyl}-N-phenyl-3,4-dihydro-2H-1,4-benzoxazine-6-carboxamide]	432	0	4	43	6524	0	0	0	0	7	1.2	0.3	0.8	0	0	0
O=C(CC1COc2ccc(C(=O)NC3CCCCC3)cc2N1)NC(CO)CO (stereo not shown) [VE, N-cyclohexyl-3-{[(1,3-dihydroxypropan-2-yl)carbamoyl]methyl}-3,4-dihydro-2H-1,4-benzoxazine-6-carboxamide]	587	0	0	87	4587	3	0	0	1	7	0.5	0.9	0.8	3	0	0
